Here are results for 1 molecule from patent publication EP4813383A1, “USE OF TAFAMIDIS AND PHARMACEUTICALLY ACCEPTABLE SALT THEREOF IN PREVENTION, ALLEVIATION, OR TREATMENT OF DISEASES ASSOCIATED WITH HIF-2a” (Huaya Jiyuan (Shenzhen) Pharmaceutical Co., Ltd., priority 2024, dated 2025).

Molecules are shown by their SMILES.

The target in assay [1] is T1, HIF-2α (Homo sapiens, UniProt Q99814).
T1 construct: 786-O is a renal carcinoma cell line that predominantly expresses HIF-2α and lacks functional HIF-1α; endogenous in cells; host or cells: 786-O cells stably carrying an HRE-driven luciferase reporter
T1 sequence (Q99814 whole entry): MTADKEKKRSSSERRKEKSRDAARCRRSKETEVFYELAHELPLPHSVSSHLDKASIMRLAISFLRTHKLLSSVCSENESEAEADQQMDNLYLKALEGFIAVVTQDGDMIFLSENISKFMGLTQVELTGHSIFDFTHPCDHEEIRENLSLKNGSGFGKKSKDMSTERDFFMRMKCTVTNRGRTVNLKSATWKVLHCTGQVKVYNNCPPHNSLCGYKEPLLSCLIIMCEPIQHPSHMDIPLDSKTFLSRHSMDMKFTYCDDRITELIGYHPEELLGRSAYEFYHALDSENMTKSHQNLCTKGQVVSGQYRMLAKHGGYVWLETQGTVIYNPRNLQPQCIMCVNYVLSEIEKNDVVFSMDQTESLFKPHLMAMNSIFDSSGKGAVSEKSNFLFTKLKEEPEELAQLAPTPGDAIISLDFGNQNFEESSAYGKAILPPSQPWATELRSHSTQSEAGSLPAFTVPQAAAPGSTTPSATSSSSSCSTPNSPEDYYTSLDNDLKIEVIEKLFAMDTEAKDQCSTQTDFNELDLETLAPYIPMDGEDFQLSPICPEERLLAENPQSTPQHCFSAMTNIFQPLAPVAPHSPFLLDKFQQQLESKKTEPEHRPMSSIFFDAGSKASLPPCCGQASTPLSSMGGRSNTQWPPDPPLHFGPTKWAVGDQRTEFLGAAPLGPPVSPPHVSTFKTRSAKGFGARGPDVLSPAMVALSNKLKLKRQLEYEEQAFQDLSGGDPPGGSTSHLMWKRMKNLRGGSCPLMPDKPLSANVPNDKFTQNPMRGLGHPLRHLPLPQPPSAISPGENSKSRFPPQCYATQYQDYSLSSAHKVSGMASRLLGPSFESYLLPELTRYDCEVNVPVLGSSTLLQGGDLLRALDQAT
T1 sequence (P27540 whole entry partner): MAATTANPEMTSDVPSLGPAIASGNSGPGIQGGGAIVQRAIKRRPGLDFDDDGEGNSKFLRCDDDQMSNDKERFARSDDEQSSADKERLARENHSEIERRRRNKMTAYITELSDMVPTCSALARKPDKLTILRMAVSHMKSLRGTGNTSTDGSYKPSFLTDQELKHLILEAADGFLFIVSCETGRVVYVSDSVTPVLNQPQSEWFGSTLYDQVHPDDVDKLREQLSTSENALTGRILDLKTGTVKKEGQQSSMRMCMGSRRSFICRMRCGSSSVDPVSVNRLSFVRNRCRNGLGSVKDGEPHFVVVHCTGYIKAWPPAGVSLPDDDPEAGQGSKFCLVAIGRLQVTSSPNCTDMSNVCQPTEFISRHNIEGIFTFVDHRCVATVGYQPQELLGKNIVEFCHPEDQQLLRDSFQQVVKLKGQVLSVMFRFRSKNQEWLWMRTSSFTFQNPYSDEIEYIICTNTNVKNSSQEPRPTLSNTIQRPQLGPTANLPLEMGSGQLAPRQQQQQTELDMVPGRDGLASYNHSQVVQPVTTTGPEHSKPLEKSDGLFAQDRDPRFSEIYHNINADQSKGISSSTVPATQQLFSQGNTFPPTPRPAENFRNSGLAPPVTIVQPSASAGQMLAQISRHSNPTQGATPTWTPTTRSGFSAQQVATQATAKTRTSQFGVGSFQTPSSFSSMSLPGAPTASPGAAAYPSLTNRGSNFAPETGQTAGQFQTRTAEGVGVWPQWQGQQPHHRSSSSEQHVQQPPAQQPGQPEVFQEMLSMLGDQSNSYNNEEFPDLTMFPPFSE
Put plainly: Luciferase reporter gene assay (HRE-driven luciferase in stably transfected 786-O cells). It is filed as cell-based. The text has this: Experimental principles: 786-O is a renal carcinoma cell line that predominantly expresses HIF-2α and lacks functional HIF-1α. This characteristic makes 786-O cells an ideal model for studying HIF-2α transcriptional activity and related signaling pathways. In the luciferase reporter gene assay, a 786-O monoclonal cell line that stably expresses hypoxia response element (HRE)-driven luciferase (Luc) activity is obtained through puromycin selection. The HIF-2α agonist promotes dimerization of HIF-2α and HIF-β, and activates an HRE promoter. By measuring fluorescence intensity, luciferase activity can be determined, thereby assessing the ability of the HIF-2α agonist to promote transcription.
Experimental method: A total of 6000 stably transfected 786-O cells stably containing HRE and Luc sequences are seeded in each well of a 96-well plate, and 100 µL of RPMI-1640 culture medium containing 10% fetal bovine serum is added to each well. After 24 hours, a compound at a corresponding concentration is added to each well. A blank group is set as a control. Only a DMSO solvent is added in the well of the blank group. For initial compound screening, both tafamidis and tafamidis meglumine are tested at two concentrations: 2 µM and 20 µM. For concentration-gradient determination, each concentration is tested in triplicate. After co-incubation for 24 hours, the culture medium is discarded, and 20 µL of firefly luciferase reporter gene cell lysis buffer (RG126M, Beyotime) is added to each well. The 96-well plate is shaken on a microplate shaker for 10 minutes. After shaking, 10 µL of lysate is transferred into a white opaque plate, and then 10 µL of Steady-Lumi™ firefly luciferase assay reagent (RG058S, Beyotime) is added to each well. Finally, luminescence is measured using a microplate reader (Agilent Synergy Neo2). E20 represents the effect of the compound at a 20 µM concentration, and is calculated as: E20 = fluorescence value of the 20 µM well ÷ fluorescence value of the blank control × 100%. E2 represents the effect of the compound at a 2 µM concentration, and is calculated as: E2 = fluorescence value of the 2 µM well ÷ fluorescence value of the blank control × 100%. EC50 is the compound concentration at which the agonistic efficacy is increased by 50% relative to the blank control. The agonistic efficacy of a compound is determined by calculating the concentration (EC50) required to achieve a 50% increase in the fluorescence activity relative to the blank control and a maximum activation percentage (Emax). The maximum activation percentage (Emax) of an agonist refers to a ratio, expressed as a percentage, of the fluorescence value corresponding to the maximal effect (observed maximal response) induced when the agonist concentration reaches receptor-binding saturation in a particular receptor system, to the fluorescence value of the receptor system in the absence of agonist. In this experiment, Vyndaqel is directly used in place of tafamidis meglumine.

The subject of assay [2] is aristolochic acid-induced zebrafish model. The assay is described as follows: Aristolochic acid-induced zebrafish chronic kidney disease model: renal edema incidence. In kind it is in vivo, Wild-type AB strain zebrafish. Conditions: 1 µM in aqueous solution, 30 hours; model group 100%. The protocol: Wild-type AB strain zebrafish at 2 days post-fertilization (2 dpf) are randomly selected and placed in a 6-well plate, with 30 zebrafish treated in each well (treatment group). Other than the normal control group, all treatment groups are exposed to aristolochic acid in aqueous solution to establish a zebrafish renal anemia model. After treatment at 28 °C for 18 hours, a normal control group and a model control group are set up simultaneously. Tafamidis samples are administered in aqueous solution to the treatment groups separately (at concentrations of 20 µM, 10 µM, and 1 µM separately, each concentration being tested in triplicate). Water is administered to the normal control group and the model control group correspondingly, with a volume of 3 mL per well.

Assay [3] concerns erythropoietin (EPO) gene expression. Put plainly: qRT-PCR assay of EPO gene expression in 786-O renal carcinoma cells. It is filed as cell-based. Conditions: 20 µM, 24 hours, relative to the vehicle, GAPDH internal control. As for the experimental part:
(§1) Experimental method: 786-O renal carcinoma cells are seeded into a 12-well plate. After 24 hours, tafamidis is added at different concentrations (1 µM, 10 µM, and 20 µM, separately), and the cells are co-incubated with the compound for 24 hours. No treatment is applied to the vehicle group. RNA is extracted using a TRIZOL reagent. cDNA transcription is performed using an All-in-one™ First-Strand cDNA Synthesis Kit (for specific operating procedures, see the manufacturer's instructions). A SYBR reagent is used for fluorescence signal detection, and GAPDH is used as an internal control. The qRT-PCR primers are as follows: • GAPDH_fwd, […]; • GAPDH_rev, TGGTGAAGACGCCAGTGGA; • VEGF_fwd, […]; • VEGF_rev, […]; • EPO_fwd, […]; • EPO_rev, […].
For orientation: Quantitative PCR measures a nucleic acid by following its amplification.

The test system of assay [4] is vascular endothelial growth factor (VEGF) gene expression. The assay is described as follows: qRT-PCR assay of VEGF gene expression in 786-O renal carcinoma cells. The settings on record: 24 hours, relative to the vehicle, GAPDH internal control. In kind it is cell-based. The protocol:
as §1

As for `O=C(O)c1ccc2nc(-c3cc(Cl)cc(Cl)c3)oc2c1` [tafamidis, 2-(3,5-dichlorophenyl)-1,3-benzoxazole-6-carboxylic acid], the “agonistic efficacy at a 2 µM concentration (E2)” value in assay [1] (2 µM, 24 hours co-incubation, fluorescence value as % of blank control (DMSO)) is given as 142%. Besides, the “agonistic efficacy at a 20 µM concentration (E20)” value in assay [1] (20 µM, 24 hours co-incubation, fluorescence value as % of blank control (DMSO)) came to 207%. Also, the Emax (as a rule, the greatest response seen or fitted, relative to the assay's reference) in assay [1] (786-0, read-out: Emax (maximum activation percentage), maximal response as % of fluorescence without agonist) is 225%. The EC50 in assay [1] (concentration required for a 50% increase in fluorescence activity relative to the blank control, 24 hours, read-out: EC50) amounted to 1110 nM. The renal edema incidence in assay [2] came out at 80%. The “upregulates erythropoietin (EPO) gene expression” value in assay [3] was determined as 0.9 fold. Moreover, the “upregulates vascular endothelial growth factor (VEGF) gene expression” value in assay [4] (10 µM) worked out at 0.5 fold. Moreover, the “upregulates VEGF gene expression” value in assay [4] (20 µM) is given as 1.4 fold.
